Key:
[1] = cited from earlier work; for mode of elimination / renal secretion (in words): in vivo
[2] = Liver accumulation in a human being after 40 minutes; type: in vivo; settings: 0.5 mCi intravenously
Method: The liver accumulation is determined after 40 minutes. For the tested Tc99m-LL-isomer it amounts to 2.9%, for Tc99m-MAG3 it amounts to 4.0% of the injected dose.

Molecule | mode of elimination / renal secretion (in words) [1] | clearance ([1]; chelate of DTPA) | liver accumulation [2]
O=C(O)CNC(=O)c1ccccc1[131I] [iodo-131-Hippuran] | secreted actively tubularly |  | 
Tc99m-diethylene triamine pentaacetic acid [DTPA] | eliminated entirely or substantially entirely by glomerular filtration | 100 ml of blood plasma per minute | 
Tc-99m-mercaptoacetyltriglycine [Tc99m-MAG3] | secreted by the kidneys selectively and approximately equally rapidly as iodo-Hippuran |  | 4.0 % of the injected dose

Source: patent publication US4925650A, “Technetium -99m complex for examining the renal function” (Mallinckrodt, Inc., priority 1988, dated 1990)
